This note sets out measurements from patent US11920139B2, “Regulated expression of antigen and/or regulated attenuation to enhance vaccine immunogenicity and/or safety” (priority 2007, dated 2024).

Experiment [1] concerns Salmonella Typhi strain χ9639(pYA4088). Put plainly: microbe, parasite or virus in culture. In kind it is cell-based. Particulars: for MIC: Salmonella enterica, TYPHI, read-out: Minimum inhibitory concentration. The text has this:
(§1) Master seed and working seed banks of each vaccine organism in separate vials have been prepared for frozen storage in vegetable-based cryopreservative. […] Ampicillin, ciprofloxacin, ceftriaxone and trimethoprim/sulfamethoxazole are typically tested for minimum inhibitory concentrations (MICs) for Salmonella.

In experiment [2] the test system is Salmonella Typhi strain χ9640(pYA4088). In words: microbe, parasite or virus in culture. To be noted: for MIC: Salmonella enterica, TYPHI, read-out: Minimum inhibitory concentration. In kind it is cell-based.
Description: as §1

The test system of experiment [3] is Salmonella Typhi strain χ9633(pYA4088). In words: Minimum inhibitory concentrations of antibiotics. To be noted: for MIC: Salmonella enterica, TYPHI, read-out: Minimum inhibitory concentration. In kind it is cell-based. The text has this: (§2) Master seed and working seed banks of each vaccine organism in separate vials have been prepared for frozen storage in vegetable-based cryopreservative. […] Antibiotic sensitivity testing has confirmed that these strains are sensitive to ciprofloxacin, ampicillin, ceftriaxone, trimethoprim/sulfamethoxazole (Table 15). Ampicillin, ciprofloxacin, ceftriaxone and trimethoprim/sulfamethoxazole are typically tested for minimum inhibitory concentrations (MICs) for Salmonella.

For experiment [4], the system named is the three vaccine strains (RASV-Sp). Put plainly: Antibiotic sensitivity testing of the vaccine strains. It counts as cell-based, Salmonella Typhi.
Description: as §2

With `O=C(O)c1cn(C2CC2)c2cc(N3CCNCC3)c(F)cc2c1=O` [ciprofloxacin], the MIC in experiment [1], in experiment [2] and in experiment [3] was below 0.25 µg/mL each time. In addition, in experiment [4], the “antibiotic sensitivity” value is “sensitive”.

On to `CO/N=C(\C(=O)N[C@@H]1C(=O)N2C(C(=O)O)=C(CSc3nc(=O)c(=O)[nH]n3C)CS[C@H]12)c1csc(N)n1` [ceftriaxone], for which the figures for the MIC in experiment [1], in experiment [2] and in experiment [3] were below 1 µg/mL, below 1 µg/mL and below 0.25 µg/mL, respectively. Further, the “antibiotic sensitivity” value in experiment [4] is “sensitive”.

Take `CC1(C)S[C@@H]2[C@H](NC(=O)[C@H](N)c3ccccc3)C(=O)N2[C@H]1C(=O)O` [ampicillin]: the MIC in experiment [1], in experiment [2] and in experiment [3] was below 2 µg/mL throughout. In addition, the “antibiotic sensitivity” value in experiment [4] is given as “sensitive”.

On to trimethroprim-sulfamethoxazole, for which the Minimum inhibitory concentration in experiment [1], in experiment [2] and in experiment [3] was below 20 µg/mL in each case. The “antibiotic sensitivity” value in experiment [4] is “sensitive”.
